Laboratory results: patent publication US11377425B1, “Small molecule modulators of IL-17” (LEO Pharma A/S, priority 2018, dated 2022)

molecular target: T1, human IL-17AA (Homo sapiens, UniProt Q16552); experiment: IL-8 release assay in human epithelial keratinocytes adult (HEKa); format: cell-based; details: HEKa cells, 3 ng/mL HEK-human IL-17AA + 10 ng/mL human TNFalpha; read-out: Rel EC50 IL-8 release assay
T1 construct: host or cells: HEK (human embryonic kidney) cells
T1 sequence (Q16552 24-155): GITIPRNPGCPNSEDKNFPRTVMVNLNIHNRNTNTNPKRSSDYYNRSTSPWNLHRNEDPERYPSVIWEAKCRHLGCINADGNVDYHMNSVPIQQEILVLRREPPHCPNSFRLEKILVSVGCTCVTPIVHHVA
Summary of the method: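 Adult human epidermal keratinocytes stimulated 68-72 h at 37 °C with 3 ng/mL HEK-derived human IL-17AA plus 10 ng/mL TNF-alpha (final) in the presence of compound; TNF-alpha alone defines 100% inhibition. Secreted IL-8 measured by HTRF as percent of controls; relative IC50/Emax from four-parameter fit (r^2>0.9), cytotoxicity by PrestoBlue.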

Cc1n[nH]c(C(C)(C)O)c1-c1ccc(NC(=O)[C@@H](NC(=O)c2ccnn2C)C(c2ccccc2)c2ccccc2)cc1 [Example 435, N-[(1S)-1-benzhydryl-2-[4-[5-(1-hydroxy-1-methyl-ethyl)-3-methyl-1H-pyrazol-4-yl]anilino]-2-oxo-ethyl]-2-methyl-pyrazole-3-carboxamide] and Cc1n[nH]c(C)c1-c1ccc(NC(=O)[C@@H](NC(=O)c2ccnn2C)C(c2ccccc2)c2ccccc2)cc1O [Example 411, N-[(1S)-1-benzhydryl-2-[4-(3,5-dimethyl-1H-pyrazol-4-yl)-3-hydroxy-anilino]-2-oxo-ethyl]-2-methyl-pyrazole-3-carboxamide] fall in the same range of EC50: 100 to 1000 nM for the first, 100 to 1000 nM for the second.

CCn1nccc1C(=O)N[C@H](C(=O)Nc1ccc(-c2c(C)n[nH]c2C)c(O)c1)[C@H]1CC[C@H](C)CC1 [Example 416, N-[(1S)-2-[4-(3,5-dimethyl-1H-pyrazol-4-yl)-3-hydroxy-anilino]-1-(trans-4-methylcyclohexyl)-2-oxo-ethyl]-2-ethyl-pyrazole-3-carboxamide] and CCn1nccc1C(=O)N[C@H](C(=O)Nc1ccc(-c2c(C)n[nH]c2C)cc1)[C@H]1CC[C@H](C)CC1 [Example 126, Trans N-[(1S)-2-[4-(3,5-dimethyl-1H-pyrazol-4-yl)anilino]-1-(4-methylcyclohexyl)-2-oxo-ethyl]-2-ethyl-pyrazole-3-carboxamide] cannot be ordered by EC50: under 100 nM for the first, under 100 nM for the second.

Compared with CCn1ccc(C(=O)N[C@H](C(=O)Nc2ccc(-c3c(C)n[nH]c3C)cc2)C(C2CC2)C2CC2)n1 [Example 199, N-[(1S)-1-(dicyclopropylmethyl)-2-[4-(3,5-dimethyl-1H-pyrazol-4-yl)anilino]-2-oxo-ethyl]-1-ethyl-pyrazole-3-carboxamide], Cc1n[nH]c(C)c1-c1ccc(NC(=O)[C@@H](NC(=O)c2ccnn2CCO)C(C2CC2)C2CC2)cc1 [Example 183, N-[(1S)-1-(dicyclopropylmethyl)-2-[4-(3,5-dimethyl-1H-pyrazol-4-yl)anilino]-2-oxo-ethyl]-2-(2-hydroxyethyl)pyrazole-3-carboxamide] is lower in EC50: over 1000 nM for the first, 100 to 1000 nM for the second.

Cc1n[nH]c(C)c1-c1ccc(NC(=O)[C@@H](NC(=O)c2ccnn2[C@@H](C)CO)[C@@H]2C[C@H](C)C[C@H](C)C2)cc1 [Example 141, N-[(1S)-1-[(3R,55)-3,5-dimethylcyclohexyl]-2-[4-(3,5-dimethyl-1H-pyrazol-4-yl)anilino]-2-oxo-ethyl]-2-[(1S)-2-hydroxy-1-methyl-ethyl]pyrazole-3-carboxamide] and Cc1n[nH]c(C)c1-c1ccc(NC(=O)[C@@H](NC(=O)c2ccnn2C)C2C[C@@H](C)C[C@@H](C)C2)cc1 (stereo partly drawn) [Example 147, N-[(1S)-1-[(3R,5S)-3,5-dimethylcyclohexyl]-2-[4-(3,5-dimethyl-1H-pyrazol-4-yl)anilino]-2-oxo-ethyl]-2-methyl-pyrazole-3-carboxamide] cannot be ordered by EC50: under 100 nM for the first, under 100 nM for the second.

Cc1ncn(C)c1-c1ccc(NC(=O)[C@@H](NC(=O)c2ccnn2C(C)C)C(C2CC2)C2CC2)cc1 [Example 403, N-[(1S)-1-(dicyclopropylmethyl)-2-[4-(3,5-dimethylimidazol-4-yl)anilino]-2-oxo-ethyl]-2-isopropyl-pyrazole-3-carboxamide] and Cc1noc(CO)c1-c1ccc(NC(=O)[C@@H](NC(=O)c2ccnn2C(C)C)C(C2CC2)C2CC2)cc1 [Example 409, N-[(1S)-1-(dicyclopropylmethyl)-2-[4-[5-(hydroxymethyl)-3-methyl-isoxazol-4-yl]anilino]-2-oxo-ethyl]-2-isopropyl-pyrazole-3-carboxamide] fall in the same range of EC50: 100 to 1000 nM for the first, 100 to 1000 nM for the second.

Cc1n[nH]c(C)c1-c1ccc(NC(=O)[C@@H](NC(=O)c2ccnn2C)[C@H]2CC[C@H](C)CC2)cc1 [Example 125, Trans N-[(1S)-2-[4-(3,5-dimethyl-1H-pyrazol-4-yl)anilino]-1-(4-methylcyclohexyl)-2-oxo-ethyl]-2-methyl-pyrazole-3-carboxamide] and Cc1n[nH]c(C)c1-c1ccc(NC(=O)[C@@H](NC(=O)c2ccnn2C(C)C)[C@H]2CC[C@H](C)CC2)cc1 [Example 127, Trans N-[(1S)-2-[4-(3,5-dimethyl-1H-pyrazol-4-yl)anilino]-1-(4-methylcyclohexyl)-2-oxo-ethyl]-2-isopropyl-pyrazole-3-carboxamide] cannot be ordered by EC50: under 100 nM for the first, under 100 nM for the second.

Cc1n[nH]c(C)c1-c1ccc(NC(=O)[C@@H](NC(=O)c2ccnn2C(C)C)C2CCC3(CC2)CC3)cc1 [Example 112, N-[(1S)-2-[4-(3,5-dimethyl-1H-pyrazol-4-yl)anilino]-2-oxo-1-spiro[2.5]octan-6-yl-ethyl]-2-isopropyl-pyrazole-3-carboxamide] and Cc1n[nH]c(C)c1-c1ccc(NC(=O)C(NC(=O)c2ccnn2[C@@H](C)CO)C2CCCCCCC2)cc1 (single isomer, unassigned) [Example 151] cannot be ordered by EC50: under 100 nM for the first, under 100 nM for the second.

Compared with CCc1n[nH]c(CC)c1-c1ccc(NC(=O)[C@@H](NC(=O)c2ccnn2C(C)C)C(C2CC2)C2CC2)cc1O [Example 418, N-[(1S)-1-(dicyclopropylmethyl)-2-[4-(3,5-diethyl-1H-pyrazol-4-yl)-3-hydroxy-anilino]-2-oxo-ethyl]-2-isopropyl-pyrazole-3-carboxamide], Cc1n[nH]c(C)c1-c1ccc(NC(=O)[C@@H](NC(=O)c2ccnn2C(C)CO)C(C2CC2)C2CC2)cc1 (stereo partly shown) [Example 120] is higher in EC50: under 100 nM for the first, 100 to 1000 nM for the second. The first is the more potent here.

First: Cc1nocc1C(=O)N[C@H](C(=O)Nc1ccc(-c2c(C)n[nH]c2C)cc1)C(C1CCC1)C1CCC1 [Example 274, N-[(1S)-1-[di(cyclobutyl)methyl]-2-[4-(3,5-dimethyl-1H-pyrazol-4-yl)anilino]-2-oxo-ethyl]-3-methyl-isoxazole-4-carboxamide]
Second: Cc1n[nH]c(C)c1-c1ccc(NC(=O)[C@@H](NC(=O)C2CCCC2)C(C2CC2)C2CC2)cc1 [Example 170, N-[(1S)-1-(dicyclopropylmethyl)-2-[4-(3,5-dimethyl-1H-pyrazol-4-yl)anilino]-2-oxo-ethyl]cyclopentane carboxamide]
The EC50 of the first is lower: under 100 nM for the first, 100 to 1000 nM for the second. The first is the more potent here.

Cn1cnnc1-c1ccc(NC(=O)[C@@H](NC(=O)c2ccnn2C)C2CCCCC2)cc1 [Example 352, N-[(1S)-1-cyclohexyl-2-[4-(4-methyl-1,2,4-triazol-3-yl)anilino]-2-oxo-ethyl]-2-methyl-pyrazole-3-carboxamide] and Cn1cnnc1-c1ccc(NC(=O)[C@@H](NC(=O)c2ccnn2C)C2CCCCCC2)cc1 [Example 350, N-[(1S)-1-cycloheptyl-2-[4-(4-methyl-1,2,4-triazol-3-yl)anilino]-2-oxo-ethyl]-2-methyl-pyrazole-3-carboxamide] cannot be ordered by EC50: over 1000 nM for the first, over 1000 nM for the second.

Compared with CCn1nccc1C(=O)N[C@H](C(=O)Nc1ccc(-n2c(C)c[nH]c2=O)cc1)C(C1CC1)C1CC1 [Example 370, N-[(1S)-1-(dicyclopropylmethyl)-2-[4-(4-methyl-2-oxo-1H-imidazol-3-yl)anilino]-2-oxo-ethyl]-2-ethyl-pyrazole-3-carboxamide], Cc1n[nH]c(C)c1-c1ccc(NC(=O)[C@@H](NC(=O)c2ccnn2CCCO)C(C2CC2)C2CC2)cc1 [Example 102, N-[(1S)-1-(dicyclopropylmethyl)-2-[4-(3,5-dimethyl-1H-pyrazol-4-yl)anilino]-2-oxo-ethyl]-2-(3-hydroxypropyl)pyrazole-3-carboxamide] is lower in EC50: over 1000 nM for the first, under 100 nM for the second. The second is the more potent here.

CCC(C1CCCCC1)C(NC(=O)c1ccnn1C)C(=O)Nc1ccc(-c2c(C)n[nH]c2C)cc1 (single isomer, unassigned) [Example 257] and Cc1n[nH]c(CO)c1-c1ccc(NC(=O)[C@@H](NC(=O)c2ccnn2C)C2CCCCCC2)cc1 [Example 446, N-[(1S)-1-cycloheptyl-2-[4-[5-(hydroxymethyl)-3-methyl-1H-pyrazol-4-yl]anilino]-2-oxo-ethyl]-2-methyl-pyrazole-3-carboxamide] cannot be ordered by EC50: under 100 nM for the first, under 100 nM for the second.

CC(C)n1nccc1C(=O)N[C@H](C(=O)Nc1ccc(-c2cccnc2CO)cc1)C(C1CC1)C1CC1 [Example 407, N-[(1S)-1-(dicyclopropylmethyl)-2-[4-[2-(hydroxymethyl)-3-pyridyl]anilino]-2-oxo-ethyl]-2-isopropyl-pyrazole-3-carboxamide] and CC[C@H](C)[C@H](NC(=O)c1ccnn1CC)C(=O)Nc1ccc(-c2c(C)n[nH]c2C)cc1 [Example 109, N-[(1S,25)-1-[[4-(3,5-dimethyl-1H-pyrazol-4-yl)phenyl]carbamoyl]-2-methyl-butyl]-2-ethyl-pyrazole-3-carboxamide] fall in the same range of EC50: 100 to 1000 nM for the first, 100 to 1000 nM for the second.

Cc1[nH]nc(CO)c1-c1ccc(NC(=O)[C@@H](NC(=O)OC(C)(C)C)C2CCCCCC2)cc1 [Example 439, tert-butyl N-[(1S)-1-cycloheptyl-2-[4-[5-(hydroxymethyl)-3-methyl-1H-pyrazol-4-yl]anilino]-2-oxo-ethyl]carbamate] and Cc1ncn(C)c1-c1ccc(NC(=O)[C@@H](NC(=O)OC(C)(C)C)C2CCCCCC2)cc1 [Example 88, tert-butyl N-[(1S)-1-cycloheptyl-2-[4-(3,5-dimethylimidazol-4-yl)anilino]-2-oxo-ethyl]carbamate] fall in the same range of EC50: 100 to 1000 nM for the first, 100 to 1000 nM for the second.

Compared with Cc1n[nH]c(C)c1-c1ccc(NC(=O)C(NC(=O)c2ccnn2C)[C@H]2CCCc3c(F)cccc32)cc1 (single isomer, unassigned) [Example 256], Cc1n[nH]c(C)c1-c1ccc(NC(=O)[C@@H](NC(=O)c2cnnn2C)C2CCCCCC2)cc1 [Example 62, N-[(1S)-1-cycloheptyl-2-[4-(3,5-dimethyl-1H-pyrazol-4-yl)anilino]-2-oxo-ethyl]-3-methyl-triazole-4-carboxamide] is higher in EC50: under 100 nM for the first, 100 to 1000 nM for the second. The first is the more potent here.

In the case of Cc1n[nH]c(C)c1-c1ccc(NC(=O)[C@@H](NC(=O)N2CCCCC2CCCO)C2CCCCC2)cc1 (single isomer, unassigned) [Example 461], the EC50 is reported as over 1000 nM.
